Experimental data published in US6686382B2, “Sulfonamides and derivatives thereof that modulate the activity of endothelin” (Encysive Pharmaceuticals Inc., priority 1999, dated 2004).

What was measured:
CYP3A4 = target: T1, CYP3A4 (Homo sapiens, UniProt P08684); assay: Cytochrome P450 enzyme assay, CYP3A4 (Gentest Supersomes, fluorometric); assay type: in vitro ADME; details: human recombinant enzyme, mean IC50; read-out: CP450 3A4 IC50
T1 construct: purchased Gentest Corporation P202
Protocol: In vitro assays to determine the concentration of the compounds provided herein required for 50% inhibition of substrate metabolism (IC50) by different human cytochrome P450 enzymes (2C9, 2C19, 3A4) were conducted using human recombinant cytochrome P450 enzyme assays, developed by Gentest Corporation. These assays contain Gentest Supersomes™ (specific human cytochrome P450 enzyme, co-expressed with P450 reductase and cytochrome b5), a NADPH regenerating system, substrate and a concentration range of the compounds provided herein. The fluorescent product was the measured end point for these assays. IC50s were calculated using a four-parameter logistic equation with the bottom fixed at 0% inhibition and the top fixed at 100% inhibition. (Values are the mean IC50±SD when n is greater than 1.)
Assays were conducted in 96-well microtiter plates using fluorometric assays developed by Gentest Corporation. The 12 wells in each row were used for one inhibition curve. Wells 1 to 8 contained serial 1:3 dilutions of the test compound. Wells 9 to 12 contained no inhibitor and wells 11 and 12 were blanks for background fluorescence (stop solution was added before the enzyme). All concentration curves were performed in duplicate. Incubations were initiated by the addition of enzyme and substrate to the pre-warmed reaction mixture. After a specific incubation period, the reaction was stopped by the addition of stop solution. Metabolite production per well was determined by measuring fluorescence using a fluorescent plate reader. Detailed experimental procedures for each enzyme are listed below. See, generally, Methodology of a high throughput method for measuring cytochrome P450 inhibition (Gentest Corporation, Technical Bulletin); Crespi, C. L.; Miller, V. P.; and Penman, B. W. (1997) Anal. Biochem. 248:188-190; and Geungerich, F. P. (1997) Adv. Pharm. 43:7-35.
A 0.2 ml/well reaction mixture containing 4 pmol CYP3A4 (P202), 1.3 mM NADP^+, 3.3 mM glucose-6-phosphate, 3.3 mM magnesium chloride 0.4 U/ml glucose-6-phosphate dehydrogenase, 0.01% pluronic F68, and 50 μM resorufin benzyl ether in 200 mM potassium phosphate (pH 7.4), was incubated at 37° C. for 30 minutes. Ketoconazole, a standard inhibitor of 3A4, was serially diluted from the highest concentration of 5 μM and acted as a positive control. […] After incubation, the reaction was stopped by the addition of 75 μl stop solution (80% acetonitrile/20% 0.5 M Tris base) and fluorescence/well was measured within 1 hour using a Spectra Fluor (Tecan) fluorescent plate reader. […]
The “% inhibition” was calculated as follows: [formula]
Concentration versus % inhibition curves were constructed in Prism (GraphPad, Inc.). The data was analyzed using “Top & Bottom Fixed” routine. […]

[1] = Pharmacokinetic properties (oral availability, elimination half-life, Cmax); assay type: in vivo; details: for half-life: blood, read-out: t½ elim. (converted)
Text: As used herein, bioavailability or oral availability refers to the rate and extent of absorption. Methods for determining bioavailability or oral availability are well known to those of skill in the art. For example, bioavailability or oral availability of any of the compounds described herein can be determined empirically by administration of the compound to an animal, followed by taking blood samples over time and measuring the blood concentration of the compound. In vivo half life (t1/2) is defined as the time it takes for the concentration of the compound in the blood to be reduced by one-half. Estimations of the area under the curve for intravenous administration can be used to estimate the area under the curve for oral administration, yielding bioavailability data. See, e.g., Milo Gibal (1991) Biopharmaceutics and Pharmacology, 4th edition (Lea and Sediger).

T1 sequence (P08684 2-503 limits assumed): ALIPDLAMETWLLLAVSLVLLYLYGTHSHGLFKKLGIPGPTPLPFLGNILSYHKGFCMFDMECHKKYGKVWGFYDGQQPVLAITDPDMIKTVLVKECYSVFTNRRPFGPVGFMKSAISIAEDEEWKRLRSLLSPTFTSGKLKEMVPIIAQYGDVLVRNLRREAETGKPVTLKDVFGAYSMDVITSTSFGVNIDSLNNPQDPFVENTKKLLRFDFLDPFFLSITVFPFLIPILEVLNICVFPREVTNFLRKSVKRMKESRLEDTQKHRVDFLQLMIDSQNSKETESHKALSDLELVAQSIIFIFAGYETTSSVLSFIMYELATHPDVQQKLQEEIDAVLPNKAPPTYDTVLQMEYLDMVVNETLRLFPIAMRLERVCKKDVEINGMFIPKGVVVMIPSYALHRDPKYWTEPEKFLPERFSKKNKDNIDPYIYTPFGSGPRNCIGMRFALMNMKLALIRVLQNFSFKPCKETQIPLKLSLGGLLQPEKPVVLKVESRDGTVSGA

Row | half-life [1] | SMILES | IC50 (CYP3A4) | Cmax ([1]; in vivo) | Oral Availability ([1]; in vivo) | t½ elim. ([1]; in vivo)
1 | 6 h | CC(=O)c1cc(C)cc(C)c1NC(=O)c1sccc1S(=O)(=O)Nc1onc(C)c1C [Compound 7, N-(2-acetyl-4,6-dimethylphenyl)-3-{[(3,4 dimethyl-5-isoxazolyl)amino]sulfonyl}-2-thiophenecarboxamide] | 28 µM | 157 µg/mL | 148.1% | –
2 | – | Cc1cc2c(cc1CC(=O)c1sccc1S(=O)(=O)Nc1onc(C)c1Cl)OCO2 [N-(4-chloro-3-methyl-5-isoxazolyl)-2-{[3,4-(methylenedioxy)-6-methylphenyl)acetyl]-thiophene-3-sulfonamide, reference compound] | 0.09 µM | 133 µg/mL | 43.6% | 4.5 h
3 | 2.6 h | Cc1cc(C)c(NC(=O)c2sccc2S(=O)(=O)Nc2onc(C)c2Cl)c(Cl)c1 [Compound 34, N-(2-chloro-4,6-dimethylphenyl)-3-{[(4-chloro-3-methyl-5-isoxazolyl)amino]sulfonyl}2-thiophenecarboxamide] | 3.86 µM | 49.5 µg/mL | – | –

Row | SMILES | half-life [1] | IC50 (CYP3A4) | Cmax ([1]; in vivo) | Oral Availability ([1]; in vivo) | t½ elim. ([1]; in vivo)
4 | Cc1cc(C)c(NC(=O)c2sccc2S(=O)(=O)Nc2onc(C)c2Cl)c(S(C)(=O)=O)c1 [Compound 42, 3-{[(4-chloro-3-methyl-5-isoxazolyl)amino]sulfonyl)-N-[2,4-dimethyl-6-(methylsulfonyl)phenyl]-2-thiophenecarboxamide] | 1.5 h | 13.7 µM | 10.3 µg/mL | – | –
